From the NIST ThermoML archive (doi:10.1021/acs.jced.5b01031)
Several values for one entry are separate records, joined by “and”; a condition that tells them apart may be missing. Identical values can stand only once.

Assay: mn = molality of the nth substance listed, in mol/kg
Details: 81.5 kPa, Liquid; for viscosity: Capillary tube (Ostwald / Ubbelohde) method; for mass density: Vibrating tube method

O=C([O-])c1ccccc1.[Na+] [sodium benzoate] + O
Details | mass density, 303.15 K | mass density, 308.15 K | mass density, 313.15 K | viscosity, 303.15 K | viscosity, 308.15 K | viscosity, 313.15 K
m1 = 0.1011 | 1001.3 kg/m3 and 1001.31 kg/m3 | 999.49 kg/m3 and 999.34 kg/m3 and 999.62 kg/m3 | 997.41 kg/m3 and 997.51 kg/m3 | 0.845 mPa·s and 0.84 mPa·s | 0.757 mPa·s and 0.758 mPa·s | 0.686 mPa·s and 0.691 mPa·s
m1 = 0.3088 | 1012.46 kg/m3 and 1012.49 kg/m3 | 1010.59 kg/m3 and 1010.54 kg/m3 and 1010.6 kg/m3 | 1008.16 kg/m3 and 1008.27 kg/m3 and 1008.53 kg/m3 | 0.92 mPa·s and 0.926 mPa·s and 0.931 mPa·s | 0.821 mPa·s and 0.837 mPa·s | 0.748 mPa·s and 0.753 mPa·s
m1 = 0.5245 | 1023.61 kg/m3 and 1023.59 kg/m3 and 1023.51 kg/m3 | 1021.52 kg/m3 and 1021.61 kg/m3 and 1021.49 kg/m3 | 1019.94 kg/m3 | 1.024 mPa·s and 1.013 mPa·s and 1.019 mPa·s | 0.918 mPa·s and 0.912 mPa·s | 0.806 mPa·s and 0.812 mPa·s and 0.817 mPa·s

NCC(=O)O [2-aminoacetic acid] + O
mass density [kg/m3]
Details | m1 = 0.1001 | m1 = 0.1498 | m1 = 0.1998 | m1 = 0.2497 | m1 = 0.2999 | m1 = 0.3502 | m1 = 0.4005 | m1 = 0.45 | m1 = 0.4993
303.15 K | 998.79 | 1000.34 | 1001.88 | 1003.42 | 1004.95 | 1006.44 | 1007.94 | 1009.44 | 1010.87
308.15 K | 997.12 | – | 1000.16 | 1001.68 | 1003.19 | 1004.66 | 1006.15 | 1007.62 | 1009.05
313.15 K | 995.14 | 996.61 | 998.06 | 999.5 | 1000.94 | 1002.34 | 1003.74 | 1005.12 | 1006.46
